Article PMC12563431, “The Esc(1-21)-1c Antimicrobial Peptide Inhibits a Specific Transcriptional Activator of the MexAB–OprM Efflux Pump in P. aeruginosa” (International Journal of Molecular Sciences, 2025)
Where no end group is shown, it is not given here. [ ]: non-standard residue; d: D form.

B1: His6-Q9I5H3 (natural protein)
chain: MRILLVEDHPQLAESVVQALKGAGWTVDLLQDGVAADLALASEEYALAILDVGLPRMDGFEVLARLRGRGKTLPVLMLTARGEVKDRVHGLNLGADDYLAKPFELSELEARVKALLRRSVLGGEQLQRCGALVYDLGTRRFSLDEQPLTLTSREQAVLEAMIARPGRVMSKEQLAAQVFGLDEEASADAIEIYVHRLRKKLEGGAVRIVTFRGLGYLLEAQGD
notes: also called recombinant Q9I5H3 protein; PA0756; source: E. coli BL21 (pET28a), purified (His-Trap FF IMAC; gel filtration on Superdex 75)
B2: MexAB-OprM (MexA) promoter target duplex (dsDNA)
DNA 1: CGAGTAAACCTAATGTAAATGTGGTTGATC
DNA 2: GATCAACCACATTTACATTAGGTTTACTCG

Assays:
Q9I5H3 = assay: Fluorescence binding titration of Q9I5H3 dimer with Esc(1-21)-1c; parameters: species or system P. aeruginosa; details: intrinsic protein fluorescence, λexc 280 nm, emission 337 nm; 35 μM Q9I5H3 dimer, peptide 1.5 to 50 µM; 50 mM Tris-HCl pH 8.0, 150 mM NaCl, 20 °C; duplicate; one site specific binding fit; read-out: dissociation constant of the Esc(1-21)-1c–Q9I5H3 complex
Experimental: The interaction of the Esc(1-21)-1c peptide with Q9I5H3 was experimentally evaluated by fluorescence-based binding experiments. The dimeric form of the Q9I5H3 protein, purified by gel filtration, was titrated with increasing concentrations of Esc(1-21)-1c, and changes in the fluorescence emission of the protein were monitored (Figure 5).
Fluorescence experiments were performed on a Fluoromax-4 spectrofluorometer from Horiba Scientific, Piscataway, NJ, USA, using 1 cm optical path-length quartz cell under controlled temperature conditions (Peltier control system at 20 °C). Titrations were carried out in 50 mM Tris-HCl, pH 8.0 and 150 mM NaCl. Excitation wavelength used for the fluorescence titrations was 280 nm, and the spectra were recorded in the range 300–500 nm (slit 3 nm). Titrations were carried out at a fixed concentration (35 μM) of Q9I5H3 by adding increasing amounts of Esc(1-21)-1c peptide (from 1.5 to 50 µM), and the fluorescence emission was monitored at 337 nm. The experiments were performed in duplicate. The change in the fluorescence intensity was reported as a function of the peptide concentration and the data fitted with the “one site specific binding” equation of GraphPad Prism 9 (GraphPad Software LLC, La Jolla, CA, USA).

Q9I5H3–DNA complex = assay: EMSA competition assay, Q9I5H3 binding to MexAB–OprM promoter DNA duplex; assay type: biochemical, P. aeruginosa; details: 30 μM Q9I5H3 pre-incubated with peptide (50 to 250 μM) 10 min at 25 °C, then 0.05 µM target DNA duplex for 20 min; 1.5% agarose gel, GelRed
Experimental: The putative effect of the Esc(1-21)-1c peptide on the Q9I5H3–DNA interaction was investigated by a competition assay in which the recombinant Q9I5H3 protein was pre-incubated with increasing concentrations of the peptide before adding the DNA probe. The protein–DNA complexes in the presence of different concentrations of Esc(1-21)-1c were again examined by EMSA.
The interaction of Q9I5H3 protein with DNA was investigated by EMSA experiments using the target DNA duplex as well as a control duplex-forming sequence generally used as a model of standard B-DNA duplex, the so-called Dickerson dodecamer (Supplementary Table S1). Sense and antisense oligonucleotides were annealed by incubation at 95 °C for 5 min and then gradual cooling to room temperature. Different concentrations of proteins were incubated with the DNA duplexes (0.05 µM) for 30 min at 25 °C in 20 µL of 25 mM HEPES pH 7.6, containing 50 mM KCl, 12.5 mM MgCl2, 1 mM DTT, 20% glycerol, 0.1% Triton.
For the assays, 30 μM of protein was pre-incubated with increasing concentrations of Esc(1-21)-1c for 10 min at 25 °C. Following this pre-incubation, the DNA duplex was added, and the mixture was incubated for additional 20 minutes under standard EMSA conditions.
All samples were separated on 1.5% agarose gel in Tris-borate-EDTA (TBE) running buffer at room temperature, using GelRed as dye. […]

[1] = system: MexA, MexB, and OprM proteins; details: sub-MIC dosages; cited from earlier work
Excerpt: In the past years, we characterized the biological properties of a derivative of the frog-skin AMP esculentin-1a, namely Esc(1-21)-1c of sequence GIFSKLAGKKIKN^dLLI^dSGLKG-NH2 containing two D-amino acids, i.e., Leu14 and Ser17. […] Therefore, in-depth investigations are imperative to unravel the specific molecular mechanisms accounting for the downregulation of MexAB efflux pump by Esc(1-21)-1c. Here, we explored the intracellular mechanism of Esc(1-21)-1c at the molecular level by the identification of its putative interactors in P. aeruginosa. Functional proteomics approaches allowed us to ident ...

P. aeruginosa biofilm = details: levels below the MIC; cited from earlier work
Excerpt: (§1) In the past years, we characterized the biological properties of a derivative of the frog-skin AMP esculentin-1a, namely Esc(1-21)-1c of sequence GIFSKLAGKKIKN^dLLI^dSGLKG-NH2 containing two D-amino acids, i.e., Leu14 and Ser17. […] Furthermore, very recent studies have provided new insights into the global impact of Esc (1-21)-1c on P. ...

P. aeruginosa = details: levels below the MIC; cited from earlier work
Excerpt: as §1

His6-Q9I5H3 = biological target: B1; assay: other fluorescence titration; intrinsic protein fluorescence (excitation 280 nm, emission 337 nm); 35 μM Q9I5H3 (dimeric form from gel filtration) fixed, Esc(1-21)-1c added from 1.5 to 50 µM; 50 mM Tris-HCl pH 8.0, 150 mM NaCl, 20 °C; duplicate; one site specific binding fit; details: both partners purified
[2] = biological target: the molecule itself; assay: SEC; Superdex 75 10/300 GL calibrated with standard proteins; 50 mM Tris-HCl pH 8.0, 150 mM NaCl; peaks at 7.8 mL and 11.5 mL; monomer and dimer
[3] = biological target: T1, Q9I5H3 (probable two-component response regulator, QseB homolog) (Pseudomonas aeruginosa, UniProt Q9I5H3 1-223); assay: EMSA; protein 5-70 uM, DNA 0.05 uM; details: protein: recombinant; tags: N-terminal His6 (pET28a); chain copies: 2; label: none (GelRed stain); blunt
T1 sequence: B1 chain

GIFSKLAGKKIKN^dLLI^dSGLKG-NH2 [Esc(1-21)-1c, derivative of the frog-skin AMP esculentin-1a containing two D-amino acids, Leu14 and Ser17]
Kd (Q9I5H3): 10 ± 0.98 µM
peptide concentration at which the shifted Q9I5H3–DNA complex band completely disappeared (Q9I5H3–DNA complex): 200 µM
effect on MexA, MexB, and OprM proteins [1]: significant downregulatory effect
effect on P. aeruginosa biofilm formation (P. aeruginosa biofilm): capability to prevent P. aeruginosa biofilm formation
effect with the antibiotic Aztreonam in inhibiting growth and killing P. aeruginosa (P. aeruginosa): synergic effect

GIFSKLAGKKIKN[dL]LI[dS]GLKG-NH2 (also called Esc(1-21)-1c peptide; AMP) [Esc(1-21)-1c]
Kd (His6-Q9I5H3): 10 ± 0.98 µM

B1
stoichiometry N [2]: 2

B2
binding result [3]: binds
